Data as given in patent US9617541B2, “Biocompatible infinite coordination polymer nanoparticle-nucleic acid conjugates for antisense gene regulation” (NORTHWESTERN UNIVERSITY, priority 2014, dated 2017).

Test: Solubility observations
Assay type: physicochemical
Experimental: To a 100 mL round-bottomed flask with a magnetic stirrer was added (2) (5.90 g, 22.67 mmol), maltol (3.57 g, 28.34 mmol), and 30 mL of acidic 2-ethoxyethanol (49:1 ethoxyethanol/12M HCl). The reaction vessel was fitted with a water-cooled condenser and the mixture heated to reflux for 64 h. The resulting suspension was vacuum-filtered while hot and the solids washed with water (50 mL), followed by acetone (50 mL), to afford the crude product as a fine brown solid. […] HRMS-ESI (m/z): [M+H]^+ calculated for C19H17N2O6 369.1081. found 369.1084.
In a typical experiment, an aqueous stock solution of DABA-bis-HP-N3 was prepared consisting of 2.28 mM ligand and 24.5 mM NaOH. […] A stock solution of Fe(NO3)3.9H2O was prepared consisting of 10.80 mM Fe^3+ and 4 mM HCl (as stabilizer). To a glass vial was added 877 μL ligand stock solution, followed by 1 mL Milli-Q H2O, followed by 123 μL Fe(III) stock and the resulting orange-red mixture (2 mL) shaken for 10 minutes. The as-synthesized particles have a mean diameter ranging from 10-20 nm (DLS). Particles were purified by filtration through an Amicon Ultra 15 mL centrifugal filter with a nominal molecular weight cutoff (MWCO) of 100 kDa, washing with 3×3 mL portions of Milli-Q H2O, spinning at 5000 rcf for 10 minutes each. The particles were resuspended in 2 mL of H2O to give an approximate azide concentration of 1 mM. The particle solution was lyophilized and the resulting dark red powder characterized by FTIR (KBr), showing the characteristic azide stretch at 2093 cm^−1 is retained after the nanoparticle synthesis.

| solubility in water (water, as disodium salt) | solubility in hot DMSO and DMF (hot DMSO and DMF) | solubility in methanol (methanol) | Structure (SMILES) |
| --- | --- | --- | --- |
| freely soluble | – | – | Cc1c(O)c(=O)ccn1-c1cc(C(=O)NCCCCN=[N+]=[N-])cc(-n2ccc(=O)c(O)c2C)c1 [compound 4, Diaminobenzoic Acid Bis-HP Azide] |
| – | soluble | sparingly soluble | Cc1c(O)c(=O)ccn1-c1cc(C(=O)O)cc(-n2ccc(=O)c(O)c2C)c1 [compound 3, Diaminobenzoic Acid Bis-Hydroxypyridinone] |
